Patent US20140221499A1, “NOVEL RODENT CONTROL AGENTS AND USES THEREOF” (priority 2011, published 2014)

Tests used:
mTAAR4 = biological target: T1, mTAAR4 (Mus musculus, UniProt Q5QD15); assay: CRE-SEAP reporter gene assay in HEK293 cells transfected with mTAAR4 (fusion with N-terminal sequence of bovine rhodopsin, 'Rho tag'); type: cell-based; conditions: FIG. 11B, mTAAR4 required a 'Rho tag' (N-terminal bovine rhodopsin sequence, first 20 amino acids), EC50 ± s.e.m., 4-parameter Hill equation
T1 construct: Full Taar coding regions were cloned into pcDNA3.1; expressed in transfected cells; host or cells: HEK293
T1 sequence (Q5QD15 with tags, fused parts or gaps): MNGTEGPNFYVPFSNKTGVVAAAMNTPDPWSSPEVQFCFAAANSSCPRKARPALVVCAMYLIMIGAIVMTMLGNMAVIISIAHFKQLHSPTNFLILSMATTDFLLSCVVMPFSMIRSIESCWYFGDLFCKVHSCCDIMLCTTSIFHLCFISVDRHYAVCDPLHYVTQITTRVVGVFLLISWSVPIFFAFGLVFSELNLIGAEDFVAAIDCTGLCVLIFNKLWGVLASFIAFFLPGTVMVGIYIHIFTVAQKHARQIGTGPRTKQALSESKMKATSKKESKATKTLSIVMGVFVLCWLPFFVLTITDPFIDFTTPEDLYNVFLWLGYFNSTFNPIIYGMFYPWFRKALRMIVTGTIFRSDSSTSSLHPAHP
Procedure: (A) HEK293 cells were transfected with TAAR4 and reporter plasmids, incubated with urine extracts of species indicated, and assayed for reporter activity (triplicates±SD). […] TAAR4 was expressed as a fusion protein with an N-terminal sequence of bovine rhodopsin, which provided enhanced signal (24). […] Urine (diluted 300- or 100-fold) or urine extracts (diluted 30-, 10-, or 3-fold) of species indicated were tested (triplicates±s.d.).
FIG. 11 illustrates the dose-dependent responses of TAARs to amines. […] EC50 values (±s.e.m, bottom right) were calculated using SigmaPlot (Systat Software) and a 4-parameter Hill equation.
Full Taar coding regions were cloned into pcDNA3.1-(Invitrogen) with or without a 5′ DNA extension of 69 bp encoding the first 20 amino acids of bovine rhodopsin followed by a cloning linker ([sequence]). […] Fluorescence was measured on an EnVision plate reader (Perkin Elmer) and SEAP activity graphed as relative fluorescence of a phosphatase substrate.
HEK293 cells were co-transfected with TAAR expression plasmids and a cAMPdependent reporter gene encoding secreted alkaline phosphatase (CRE-SEAP). Transfected cells were incubated with urine extracts from different mammalian species, and phosphatase activity was quantified with a fluorescent substrate as a reporter for TAAR activation.

rTAAR8c = biological target: T2, rTAAR8c (Rattus norvegicus, UniProt Q923Y0); assay: CRE-SEAP reporter gene assay in HEK293 cells transfected with rTAAR8c; type: cell-based; conditions: FIG. 11A, functional with or without 'Rho tag', EC50 ± s.e.m., 4-parameter Hill equation
T2 construct: Full Taar coding regions were cloned into pcDNA3.1; expressed in transfected cells; host or cells: HEK293
T2 sequence (Q923Y0 1-344): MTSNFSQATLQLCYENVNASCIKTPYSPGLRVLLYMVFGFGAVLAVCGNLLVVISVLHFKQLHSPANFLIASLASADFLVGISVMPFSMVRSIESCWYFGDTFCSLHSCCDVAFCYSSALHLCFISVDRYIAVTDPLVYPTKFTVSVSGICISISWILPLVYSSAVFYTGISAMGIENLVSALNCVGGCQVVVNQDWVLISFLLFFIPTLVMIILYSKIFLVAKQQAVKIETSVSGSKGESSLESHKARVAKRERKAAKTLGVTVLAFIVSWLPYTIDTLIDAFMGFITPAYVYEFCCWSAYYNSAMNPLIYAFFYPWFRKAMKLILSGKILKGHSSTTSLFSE
Procedure: FIG. 11 illustrates the dose-dependent responses of TAARs to amines. HEK293 cells were cotransfected with plasmids encoding CRE-SEAP and rTAARs (a) or mTAARs (b), incubated with concentrations of ligands indicated, and assayed for reporter activity (triplicates±s.d.). EC50 values (±s.e.m, bottom right) were calculated using SigmaPlot (Systat Software) and a 4-parameter Hill equation.
The following mixes (10 μM of each indicated compounds) were tested for their ability to activate rat TAARs. Mix 1: butylamine, dibutylamine, hexylamine. Mix 2: 2-aminopentane, isoamylamine, isobutylamine, isopropylamine. Mix 3: N,N-dimethylcyclohexylamine, 1-methylindole, tryptamine, phenylethylamine. Mix 4: indole, 1-methylpyrrolidine, 1-methylpiperidine, pyrrolidine. […]
Full Taar coding regions were cloned into pcDNA3.1-(Invitrogen) with or without a 5′ DNA extension of 69 bp encoding the first 20 amino acids of bovine rhodopsin followed by a cloning linker ([…]). […] Fluorescence was measured on an EnVision plate reader (Perkin Elmer) and SEAP activity graphed as relative fluorescence of a phosphatase substrate.
Here, we set out to identify agonists for additional mouse and rat TAARs. […] Transfected cells were incubated with test chemicals, and phosphatase activity was quantified with a fluorescent substrate as a reporter for TAAR activation. […]

Structure (SMILES) | EC50 (mTAAR4) [µM] | EC50 (rTAAR8c) [µM]
NCCc1ccccc1 [2-phenylethylamine] | 7.5 ± 3.7 | 
CN(C)C1CCCCC1 [N,N-DIMETHYLCYCLOHEXYLAMINE, N,N-dimethylcyclohexylamine] |  | 0.55 ± 0.19
